In patent US7632528B1, “Antimigraine combination comprising Sapindus and Emblica extracts” (Lupin Limited, priority 2000, dated 2009):
Structures can show the parent of a compound that is named as a salt.

Key:
migraine attacks = conditions: cited from earlier work
patients having migraine = test: Multi-centric double blind clinical studies (placebo, flunarizine, internal crossover); format: in vivo, human
Source text: The objective of this study was to evaluate the efficacy and tolerability of the formulation as a prophylactic monotherapy in comparison with a placebo in patients having migraine. Patients were included in the study based on the following criteria: those aged between 15–60 years, diagnosed as having migraine as per International Headache Society Classification (IHSC) guidelines; those with at least two or more attacks of acute migraine per month for at least 6 months; women of child bearing age who take contraceptive measures during the study and those taking no other prophylactic therapy during the study period or alteast one month prior to the study. A detailed ENT examination was conducted prior to the study to rule out any nasal pathology. A written consent was taken from each patient.
Patients with more than 8 attacks a month, unstable angina, hypertension, cardiac failure, severe left ventricular failure, atrophic rhinitis, nasal polyposis, patients taking any prophylactic medication within 1 month of the study, patients with psychiatric disorders, pregnant/nursing women, patients with glaucoma and Parkinson's disease were excluded from the study.
This study, a multi-centric, randomised placebo controlled double blind (test formulation versus matched saline placebo) was conducted at five centres. A non-randomised single blind (test formulation versus flunarizine) study was conducted at two of the five centres. An internal crossover study was done at three of the five centres by cross over of patients in the test formulation and placebo groups.
The duration of study was eight months. The period of treatment was three months. Patients later on were crossed over internally (test formulation and placebo) for further treatment of three months and a follow-up period of two months. One drop of the test formulation was administered into each nostril two times a day, once in the morning and once in the evening. One drop of placebo was administrated into each nostril, once in the morning and once in the evening. flurnarizine tablet (10 mg) was administered once a day orally.
The enrolled patients underwent a general examination, E.N.T. examination and laboratory tests. Each patient was given a diary to record the details of the migraine, episodes, any adverse events(pre- and post-treatment) as well as details of rescue modification taken, if any. The same was also recorded by the investigator.
Patients were instructed on how to record the details of various visual symptoms, nausea, vomiting and headache (viz. time of onset, relief, and any additional treatment) and grade them according to severity (4 point scale) in diary. The recorded observations in the diary were reviewed every month of the study period.
The efficacy of the prophylactic treatment was evaluated on the following basis: • At least 50% reduction in the intensity or duration of migraine attacks (mean duration of migraine in hours) per month at the end of 12 weeks of treatment, compared to baseline. • Reduction in the frequency of attack per month using test formulation and flunarizine compared to placebo (>or =50%). • Consumption of drugs for symptomatic relief of breakthrough attacks in the three groups. • At least 50% or more reduction of attack in patients who respond to test formulation compared to the reduction of attack in patients given placebo. • The safety and patient compliance of test formulation was assessed on the basis of incidence and severity of side effects in each groups compared to placebo and number of drop outs in each group compared to placebo. Results
The results of the trial was statistically analysed based on the following parameters:
• 1. Atleast 50% reduction in the frequency of migraine attacks • 2. Atleast 50% reduction in the duration of migraine attacks • 3. Reduction in the severity of migraine attacks [graded as none (0), mild (1), moderate (2) and severe (3) • 4. […]

[1] = Colouration of the formulation on storage; format: physicochemical; conditions: 3 months
Source text: To prevent any colouration during storage of the formulation it is preferable to add an anti-oxidant to prevent the colouration. Sodium metabisulfite is preferably used. When this anti-oxidant is not added the colour of the solution changes from initial colourless to straw yellow to dark yellow in one month's time and to dark brown in three months. Addition of sodium bisulfite arrests the change in colouration. This can be used in a concentration ranging from 0.020% to 0.080% wt/vol of the composition. A range of 0.04 to 0.05% being the most preferred
Tabulation of the colour change as a function of the concentration of the sodium meta bisulfite concentration is given below in Table-III.
The importance of purging the entire system with nitrogen reflects in the colouration to the product. When no nitrogen is bubbled in to the system the colour of the formulation changes to yellow within 3 months, indicating degradation. In batches where the system is constantly kept under nitrogen atmosphere, no change in colouration is observed even after 3 months.

nasal mucosa = test: Nasal mucosal irritation as a function of additives in the formulation; format: in vivo; conditions: used as the preservative of the aqueous formulation
[2] = end of third follow-up, comparison with flunarizine

## CN1C[C@H](C(=O)N[C@]2(C)O[C@@]3(O)[C@@H]4CCCN4C(=O)[C@H](Cc4ccccc4)N3C2=O)C=C2c3cccc4[nH]cc(c34)C[C@H]21 [Ergotamine, Ergotamine tartrate]
Migraine attacks; over that observed on use of NSAIDs
  incidence of side effects: 17–41%

## Fc1ccc(C(c2ccc(F)cc2)N2CCN(C/C=C/c3ccccc3)CC2)cc1 [Flunarizine, flunarizine]
Patients having migraine; 3 months treatment
  DROP OUT RATE (%): 43%
Patients having migraine; at each follow-up
  Reduction in mean frequency of attacks: significant difference reduction in the mean frequency of attacks at the end each follow up
Patients having migraine; at the follow-ups
  Reduction in the duration of attacks: significant reduction in the duration of attacks only at the end of the second and third follow-up
Patients having migraine; end of third follow up, comparison with flunarizine
  Patients with ≧50% REDUCTION IN DURATION: 52.0%
Patients having migraine; [2]
  Patients with ≧50% REDUCTION IN DISABILITY: 69.6%
  Patients with ≧50% REDUCTION IN SEVERITY: 42.3%
Patients having migraine; third follow up, comparison with flunarizine
  Patients with ≧50% REDUCTION IN FREQUENCY: 81.5%

## O=S([O-])S(=O)(=O)[O-].[Na+].[Na+] [Sodium meta bisulfite]
[1]; sodium meta bisulfite 0.020 % w/v
  Change in colour: Colourless→light brown (3 months)
[1]; sodium meta bisulfite 0.040 % w/v
  Change in colour: Colourless→light Yellow (3 months)
[1]; sodium meta bisulfite 0.050 % w/v
  Change in colour: Colourless→very light Yellow (3 months)
[1]; sodium meta bisulfite 0.075 % w/v
  Change in colour: Remains Colourless (3 months)
[1]; sodium meta bisulfite 0.080 % w/v
  Change in colour: Remains Colourless (3 months)

## CNS(=O)(=O)Cc1ccc2[nH]cc(CCN(C)C)c2c1 [Sumatriptan, sumatriptan]
Migraine attacks; in one hour, placebo less than 27%
  relief to migraine attacks: 70%

## benzalkonium chloride
Nasal mucosa
  Mucosal irritation: causes mucosal irritation
